Reference: paper PMC3662788, “The Catalytic Roles of P185 and T188 and Substrate-Binding Loop Flexibility in 3α-Hydroxysteroid Dehydrogenase/Carbonyl Reductase from Comamonas testosteroni” (PLoS ONE, 2013)
“And” between values parts separate entries of the source, which are not always exact repeats. Identical values can stand only once.

Columns and labels:
wild-type 3α-HSD/CR [1] = molecular target: T1, wild-type 3α-HSD/CR (Comamonas testosteroni, UniProt P80702)
T1 sequence (P80702 1-257): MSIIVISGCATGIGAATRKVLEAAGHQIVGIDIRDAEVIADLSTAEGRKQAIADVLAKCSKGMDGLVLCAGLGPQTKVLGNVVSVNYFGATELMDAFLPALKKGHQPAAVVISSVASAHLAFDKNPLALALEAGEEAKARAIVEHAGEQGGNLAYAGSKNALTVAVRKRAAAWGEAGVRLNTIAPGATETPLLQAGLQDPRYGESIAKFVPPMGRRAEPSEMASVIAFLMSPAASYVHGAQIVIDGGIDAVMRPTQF

T188S mutant 3α-HSD/CR = molecular target: T2, T188S mutant 3α-HSD/CR (Comamonas testosteroni, UniProt P80702, T188S); experiment: biochemical; type: biochemical
T2 construct: His-tag (inferred from pET15b vector and Ni-NTA purification) (N); made in house; host or cells: Escherichia coli BL21(DE3)
T2 sequence (P80702 whole entry T188S): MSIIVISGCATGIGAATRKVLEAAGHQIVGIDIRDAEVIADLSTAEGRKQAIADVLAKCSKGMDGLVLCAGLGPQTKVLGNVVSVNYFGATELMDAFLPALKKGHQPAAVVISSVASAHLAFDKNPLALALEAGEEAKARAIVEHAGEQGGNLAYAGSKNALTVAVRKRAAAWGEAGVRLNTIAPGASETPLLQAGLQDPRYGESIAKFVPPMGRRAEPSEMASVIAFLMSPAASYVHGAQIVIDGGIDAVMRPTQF
Excerpt: (§1) All reactions were initiated by the addition of an enzyme.
(§2) The data were fitted to Equation 2.

T188A mutant 3α-HSD/CR = molecular target: T3, T188A mutant 3α-HSD/CR (Comamonas testosteroni, UniProt P80702, T188A); experiment: biochemical; type: biochemical
T3 construct: His-tag (inferred from pET15b vector and Ni-NTA purification) (N); made in house; host or cells: Escherichia coli BL21(DE3)
T3 sequence (P80702 whole entry T188A): as the sequence (P80702 whole entry T188S) above, with S188A counted along it
Excerpt: as §1, §2

P185A mutant 3α-HSD/CR = molecular target: T4, P185A mutant 3α-HSD/CR (Comamonas testosteroni, UniProt P80702, P185A); experiment: Steady-state kinetics and primary isotope effects, oxidation of androsterone with NAD^+
T4 sequence (P80702 1-257 P185A): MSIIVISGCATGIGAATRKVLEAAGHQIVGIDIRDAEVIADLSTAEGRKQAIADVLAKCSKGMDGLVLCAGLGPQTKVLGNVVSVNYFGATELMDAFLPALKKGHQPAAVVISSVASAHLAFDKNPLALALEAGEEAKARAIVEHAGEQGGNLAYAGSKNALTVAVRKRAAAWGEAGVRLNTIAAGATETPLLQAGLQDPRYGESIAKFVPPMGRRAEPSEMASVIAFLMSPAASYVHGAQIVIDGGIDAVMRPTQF
Excerpt: as §1, §2

wild-type 3α-HSD/CR [2] = molecular target: T1, wild-type 3α-HSD/CR; conditions: cited from earlier work
wild-type 3α-HSD/CR [3] = molecular target: T1, wild-type 3α-HSD/CR; conditions: WT; pH 10.5; obtained from Table 1
Excerpt: as §1, §2

[4] = substrate: NC(=O)c1ccc[n+]([C@@H]2O[C@H](COP(=O)([O-])OP(=O)(O)OC[C@H]3O[C@@H](n4cnc5c(N)ncnc54)[C@H](O)[C@@H]3O)[C@@H](O)[C@H]2O)c1; experiment: purified protein, by the assay type; conditions: other: P185A, 0.1 M Caps pH 10.5, 25°C
[5] = P185A, 0.1 M Caps pH 10.5, 25°C
[6] = WT, labeled vs unlabeled androsterone, 1.7 mM NAD^+, pH 10.5

Q: With `[2H]C1(O)CCC2(C)C(CCC3C4CCC(=O)C4(C)CCC32)C1` (stereo not drawn) [deuterated androsterone, [3α-^2H]Androsterone] as the molecule, how does the “apparent rate constant (kobs) for the deuteride transfer” value (wild-type 3α-HSD/CR [1]; 1 µM WT, 1 mM NAD^+, 17.5 µM deuterated androsterone, 0.1 M Caps pH 10.5, 25°C) read?
A: 309 s⁻¹

Q: With `NC(=O)c1ccc[n+]([C@@H]2O[C@H](COP(=O)([O-])OP(=O)(O)OC[C@H]3O[C@@H](n4cnc5c(N)ncnc54)[C@H](O)[C@@H]3O)[C@@H](O)[C@H]2O)c1` [NAD^+] as the molecule, how does the Ki (T188S mutant 3α-HSD/CR) read?
A: 1.6 ± 0.3 mM

Q: And the “ΔΔGbmut/wt (differential ground-state binding energy, enzyme-NAD^+ complex)” value (T188S mutant 3α-HSD/CR; T188S vs wild-type, pH 10.5, Equation 4)?
A: 1.9 kcal/mol

Q: What about the Ki (T188A mutant 3α-HSD/CR) of the same molecule?
A: 1.4 ± 0.2 mM

Q: What about the “ΔΔGbmut/wt (differential ground-state binding energy, enzyme-NAD^+ complex)” value (T188A mutant 3α-HSD/CR; T188A vs wild-type, pH 10.5, Equation 4) of the same molecule?
A: 1.8 kcal/mol

Q: What about the Ki (P185A mutant 3α-HSD/CR) of the same molecule?
A: 1 ± 0.3 mM

Q: And the “ΔΔGbmut/wt (differential ground-state binding energy, enzyme-NAD^+ complex)” value (P185A mutant 3α-HSD/CR; P185A vs wild-type, pH 10.5, Equation 4)?
A: 1.7 kcal/mol

Q: What about the “kcat/Ka (NAD^+)” value (P185A mutant 3α-HSD/CR; [5]) of the same molecule?
A: 4.7 ± 1.1 µM⁻¹ s⁻¹

Q: And the “Ka (Michaelis constant of NAD^+)” value (wild-type 3α-HSD/CR [2]; WT, 0.1 M Caps pH 10.5)?
A: 121 ± 26 µM

Q: What about the Ki (wild-type 3α-HSD/CR [2]; read-out: Kia (inhibition constant of NAD^+), WT, 0.1 M Caps pH 10.5) of the same molecule?
A: 60 ± 30 µM

Q: With `C[C@]12CC[C@@H](O)C[C@@H]1CC[C@@H]1[C@@H]2CC[C@]2(C)C(=O)CC[C@@H]12` [androsterone, Androsterone] as the molecule, how does the “minimum rate constant for hydride transfer from undeuterated androsterone to NAD^+” value (wild-type 3α-HSD/CR [1]; calculated from kobs 309 s^−1 and ^D(Vmax/Kandrosterone) 1.8) read?
A: ≥ 556 s⁻¹

Q: What about the “ΔΔG^‡ mut/wt (differential transition-state binding energy)” value (T188S mutant 3α-HSD/CR; T188S vs wild-type, pH 10.5, Equation 5) of the same molecule?
A: 2.0 kcal/mol

Q: And the kcat (T188S mutant 3α-HSD/CR; T188S, 0.1 M Caps pH 10.5, 25°C)?
A: 1414 ± 149 s⁻¹

Q: And the “kcat/KiaKb (kcat/KiNADKandrosterone)” value (T188S mutant 3α-HSD/CR; T188S, pH 10.5, obtained from Table 1)?
A: 1.4×10^4 mM^−2s^−1

Q: What about the “ΔΔG^‡ mut/wt (differential transition-state binding energy)” value (T188A mutant 3α-HSD/CR; T188A vs wild-type, pH 10.5, Equation 5) of the same molecule?
A: 1.9 kcal/mol

Q: And the kcat (T188A mutant 3α-HSD/CR; T188A, 0.1 M Caps pH 10.5, 25°C)?
A: 1200 ± 133 s⁻¹

Q: What about the “kcat/KiaKb (kcat/KiNADKandrosterone)” value (T188A mutant 3α-HSD/CR; T188A, pH 10.5, obtained from Table 1) of the same molecule?
A: 1.7×10^4 mM^−2s^−1

Q: And the “increase of Kandrosterone relative to wild-type” value (T188A mutant 3α-HSD/CR; mutation of T188 (T188A), pH 10.5)?
A: 14 fold

Q: What about the “ΔΔG^‡ mut/wt (differential transition-state binding energy)” value (P185A mutant 3α-HSD/CR; P185A vs wild-type, pH 10.5, Equation 5) of the same molecule?
A: 0.96 kcal/mol

Q: And the kcat (P185A mutant 3α-HSD/CR; [5])?
A: 916 ± 61 s⁻¹

Q: What about the “increase of kcat/Kandrosterone relative to wild-type” value (P185A mutant 3α-HSD/CR; P185A, pH 10.5) of the same molecule?
A: 3 fold

Q: What about the “kcat/KiaKb (kcat/KiNADKandrosterone)” value (P185A mutant 3α-HSD/CR; P185A, pH 10.5, obtained from Table 1) of the same molecule?
A: 8.3×10^4 mM^−2s^−1

Q: What about the “kcat/KiaKb (kcat/KiNADKandrosterone)” value (wild-type 3α-HSD/CR [3]) of the same molecule?
A: 42 ×10^4 mM^−2s^−1

Q: And the kcat (wild-type 3α-HSD/CR [2]; WT, 0.1 M Caps pH 10.5)?
A: 100 ± 8 s⁻¹

Q: And the “^D(V/K b) (primary kinetic isotope effect on Vmax/Kandrosterone)” value (wild-type 3α-HSD/CR [2]; [6])?
A: 1.8 and 1.8±0.2

Q: And the “^DV (primary kinetic isotope effect on Vmax)” value (wild-type 3α-HSD/CR [2]; [6])?
A: 1

Q: And the “^D2OVmax (solvent kinetic isotope effect)” value (wild-type 3α-HSD/CR [2]; wild-type)?
A: 2.1

B1: P185A mutant 3α-HSD/CR (Comamonas testosteroni; P185A) (protein)
chain: MSIIVISGCATGIGAATRKVLEAAGHQIVGIDIRDAEVIADLSTAEGRKQAIADVLAKCSKGMDGLVLCAGLGPQTKVLGNVVSVNYFGATELMDAFLPALKKGHQPAAVVISSVASAHLAFDKNPLALALEAGEEAKARAIVEHAGEQGGNLAYAGSKNALTVAVRKRAAAWGEAGVRLNTIAAGATETPLLQAGLQDPRYGESIAKFVPPMGRRAEPSEMASVIAFLMSPAASYVHGAQIVIDGGIDAVMRPTQF
Q: For B1, which Km [4] is on record?
A: 195 ± 55 µM
